# pEC50: −log10 of the molar value.
# Key:
# [1] = in vitro; format: cell-based; conditions: HCV 1a replicon cells, 3 days, Cell Titer-fluor
# Experimental: The EC50 and CC50 values of anti-HCV compounds were determined by HCV genotype 1a (HCV-1a) and 1B (HCV-1b) stable transfer replication (replicon) cells. The source of genotype 1a replicon is H77 clones containing K1691R, K2040R and S2204I adaptive mutations. The source of genotype 1b replicon is Con1 clones containing E1202G, T1280I and K1846T adaptive mutations.
# HCV Replicon Cell Lines: HCV-1a and HCV-1b Cells
# The compound powder was dissolved in 100% DMSO. Then the compound was diluted 5 times with 6 points, and added into the cell plate with Echo liquid handler. Ensure the final concentration of DMSO was 0.5%. Each compound was tested in double holes. Maximum initial concentration was 100, 10 or 1 nM, 5 times dilution, 6 points.
# b) Cell Culture (HCV-1a or HCV-1b Replicon Cell):
# 1) absorbing the culture supernatant of the cell culture and washing the cells with 10 mL PBS.
# 2) adding preheated pancreatin to the washed cell culture flasks, rotating culture bottle to make the bottom of the culture bottle uniformly covered by pancreatin, then placed into 37° C., 5% CO2 incubator to digest.
# 3) suspending cells in each T150 culture flask with 10-15 mL culture medium, absorbing 0.1 mL liquid and diluting 2 times by trypan blue solution as counted.
# 4) diluting cells to 8×10^4/mL with the culture medium, adding the diluted cells into the compound-containing 96-well plate (Greiner, Cat.#655090) (100 μL/well, 8000 cells/well) with automatic liquid separator (Thermo Scientific). Then place into a 37° C., 5% CO2 incubator for 3 days. Cell control well: no compound, only containing 0.5% DMSO.
# 5) adding chemiluminescent substrate Cell Titer-fluor to the cell well, after incubation for 30 minutes, detecting the signal by chemiluminescence detection system Envison (Ex at 405 nm and read at 515 nm). The effect of the compounds on the activity of HCV replicon cells was analyzed according to the luminescence data, which was used to calculate the CC50 values.
# The EC50 or CC50 values were obtained by nonlinear fitting analysis on inhibition percentage (inh %) data with GraphPad Prism software.
# [2] = Cell Titer-fluor cell activity assay in HCV-1b replicon cells (CC50); format: cell-based
# Summary of the method: (§1)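 CC50 derived by nonlinear fitting of inhibition % from Cell Titer-fluor signal (405/515 nm, 30 min). Cells: genotype 1b Con1 replicon carrying E1202G, T1280I, K1846T, seeded 8000/well with compound for 3 days, 37 °C, 0.5% DMSO; 6 points, 5-fold dilution, top 100, 10 or 1 nM, duplicates.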
# [3] = system: HCV genotype 1a (HCV-1a) replicon cells; experiment: HCV genotype 1a replicon luciferase assay (EC50); format: cell-based, hepatitis C virus genotype 1a (H77 clone); conditions: 3 days, luciferase (Bright-Glo)
# Summary of the method: (§2)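 Replicon cells, 8000/well, 3 d, 37 °C; 6-pt 5-fold dilution from 100, 10 or 1 nM, 0.5% DMSO, duplicates; Bright-Glo luminescence → EC50 (nonlinear fit). 1a = H77 K1691R/K2040R/S2204I; 1b = Con1 E1202G/T1280I/K1846T.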
# [4] = system: HCV genotype 1b (HCV-1b) replicon cells; experiment: HCV genotype 1b replicon luciferase assay (EC50); format: cell-based, hepatitis C virus genotype 1b (Con1 clone); conditions: 3 days, luciferase (Bright-Glo)
# Summary of the method: as §2
# [5] = system: HCV-1b replicon cells; experiment: Cell Titer-fluor cell activity assay in HCV-1b replicon cells (CC50); format: cell-based; conditions: 3 days
# Summary of the method: as §1
Compound,CC50 [1],CC50 at 3 days [2],"pEC50 ([3]; Hepatitis C virus, 72 h)","pEC50 ([4]; Hepatitis C virus, 72 h)",CC50 [5],pEC50 [3],pEC50 [4]
COC(=O)NC(C(=O)N1CCC[C@H]1c1ncc(-c2ccc(-c3ccc(-c4[nH]c(C5CCCN5C(=O)[C@@H](NC(=O)OC)C(C)C)c5c4CCC5)cc3)cc2)[nH]1)C1CCOCC1 (stereo partly drawn) [AG_035],> 100 nM,> 10 nM,7.00 to 8.00,10.00 to 12.00,,,
COC(=O)N[C@H](C(=O)N1CCCC1c1ncc(-c2ccc3cc(-c4ccc(-c5[nH]c(C6CCCN6C(=O)[C@@H](NC(=O)OC)C(C)C)c6c5CCC6)cc4)ccc3c2)[nH]1)C(C)C (stereo partly drawn) [AG_048],> 100 nM,> 100 nM,7.00 to 8.00,9.00 to 10.00,,,
COC(=O)N[C@H](C(=O)N1CCCC1c1ccc(-c2ccc(-c3ccc(-c4cnc(C5CCCN5C(=O)[C@@H](NC(=O)OCCF)C(C)C)[nH]4)cc3)cc2)[nH]1)C(C)C (stereo partly drawn) [AG_062],,,,,> 10 nM,7.00 to 8.00,9.00 to 10.00
"COC(=O)N[C@H](C(=O)N1CCC[C@H]1c1ncc(-c2ccc(-c3ccc(-c4cnc([C@H]5C6CCC(C6)[C@@H]5C(=O)NC(c5cccnc5)C(C)C)[nH]4)cc3)cc2)[nH]1)C(C)C (single isomer, unassigned) [AA_233_C]",,,,,> 1 nM,7.00 to 8.00,9.00 to 10.00
COC(=O)N[C@H](C(=O)N1CCCC1c1ccc(-c2ccc(-c3ccc(-c4cnc([C@@H]5CCCN5C(=O)[C@@H](NC(=O)OC)C5CCOC(C)C5)[nH]4)cc3)cc2)[nH]1)C(C)C (stereo partly drawn) [AG_053],> 100 nM,> 100 nM,8.00 to 9.00,9.00 to 10.00,,,
"COC(=O)N[C@H](C(=O)N1CCCC1c1ccc(-c2ccc(-c3ccc(-c4cnc([C@@H]5CCCN5C(=O)[C@@H](NC(=O)OC)[C@@H](C)OC)[nH]4)cc3)cc2)[nH]1)[C@@H](C)OC (single isomer, unassigned) [AG_072_B]",,,,,> 1 nM,8.00 to 9.00,9.00 to 10.00
COC(=O)NC(C(=O)N1CCCC1c1[nH]c(-c2ccc(-c3ccc(-c4cnc([C@@H]5CCCN5C(=O)[C@@H](NC(=O)OC)C(C)C)[nH]4)cc3)cc2)c2c1CCC2)C1CCOCC1 (stereo partly drawn) [AG_036],> 100 nM,> 10 nM,8.00 to 9.00,10.00 to 12.00,,,
COC(=O)NC(C(=O)N1CCC[C@H]1c1ncc(-c2ccc(-c3ccc(-c4[nH]c(C5CCCN5C(=O)[C@@H](NC(=O)OC)C(C)C)c5c4CCCC5)cc3)cc2)[nH]1)C1CCOC1 (stereo partly drawn) [AG_046],> 100 nM,> 100 nM,7.00 to 8.00,9.00 to 10.00,,,
COC(=O)NC(C(=O)N1CCCC1c1[nH]c(-c2ccc(-c3ccc(-c4cnc([C@@H]5CCCN5C(=O)[C@@H](NC(=O)OC)C(C)C)[nH]4)cc3)cc2)c2c1CCCC2)C1CCOCC1 (stereo partly drawn) [AG_040],> 100 nM,> 10 nM,7.00 to 8.00,9.00 to 10.00,,,
COC(=O)N[C@H](C(=O)N1CCC[C@H]1c1ncc(-c2ccc(-c3ccc(-c4ccc(C5CCCN5C(=O)[C@@H](NC(=O)OC)C5CCOCC5)[nH]4)cc3)cc2)[nH]1)C(C)C (stereo partly drawn) [AG_037],> 100 nM,> 10 nM,9.00 to 10.00,10.00 to 12.00,,,
"COC(=O)N[C@H](C(=O)N1CCC[C@H]1c1ncc(-c2ccc(-c3ccc(-c4cnc(C5C6CCC(C6)[C@@H]5C(=O)NC(C)c5cnccn5)[nH]4)cc3)cc2)[nH]1)[C@@H](C)OC (single isomer, unassigned) [AA_281_C]",,,,,> 1 nM,8.00 to 9.00,9.00 to 10.00
COC(=O)NC(C(=O)N1CCCC1c1[nH]c(-c2ccc(-c3ccc(-c4cnc([C@@H]5CCCN5C(=O)C(NC(=O)OC)C5CCOCC5)[nH]4)cc3)cc2)c2c1CCCC2)C1CCOCC1 (stereo partly drawn) [AG_045],> 100 nM,> 100 nM,7.00 to 8.00,9.00 to 10.00,,,
COC(=O)N[C@H](C(=O)N1CCC[C@H]1c1ncc(-c2ccc(-c3ccc(-c4ccc(C5CCCN5C(=O)[C@@H](NC(=O)OC)C(C)C)[nH]4)cc3)cc2)[nH]1)c1ccccc1 (stereo partly drawn) [AG_052],> 100 nM,> 100 nM,8.00 to 9.00,10.00 to 12.00,,,
COC(=O)NC(C(=O)N1CCC[C@H]1c1ncc(-c2ccc(-c3ccc(-c4[nH]c(C5CCCN5C(=O)[C@@H](NC(=O)OC)C(C)C)c5c4CCC5)cc3)cc2)[nH]1)C1CCOC(C)C1 (stereo partly drawn) [AG_050],> 100 nM,> 100 nM,8.00 to 9.00,10.00 to 12.00,,,
COC(=O)NC(C(=O)N1CCC[C@H]1c1ncc(-c2ccc3cc(-c4ccc(-c5[nH]c(C6CCCN6C(=O)[C@@H](NC(=O)OC)C(C)C)c6c5CCC6)cc4)ccc3c2)[nH]1)C1CCOCC1 (stereo partly drawn) [AG_051],> 100 nM,> 100 nM,8.00 to 9.00,9.00 to 10.00,,,
COC(=O)N[C@H](C(=O)N1CCC[C@H]1c1[nH]c(-c2ccc(-c3ccc(-c4cnc([C@@H]5CCCCN5C(=O)[C@@H](NC(=O)OC)[C@@H](C)OC)[nH]4)cc3)cc2)c2c1COC2)C(C)OC (stereo partly drawn) [AG_124],> 100 nM,> 1 nM,9.00 to 10.00,10.00 to 12.00,,,
COC(=O)NC(C(=O)N1CCCC1c1ccc(-c2ccc(-c3ccc(-c4[nH]c(C5CCCN5C(=O)[C@H](NC(=O)OC)C(C)C)c5c4CCC5)cc3)cc2)[nH]1)C1CCOCC1 (stereo partly drawn) [AG_038],> 100 nM,> 10 nM,7.00 to 8.00,9.00 to 10.00,,,
COC(=O)N[C@H](C(=O)N1CCCC1c1[nH]c(-c2ccc(-c3ccc(-c4cnc([C@@H]5CCCN5C(=O)[C@@H](NC(=O)OC)C(C)C)[nH]4)cc3)cc2)c2c1CCCC2)C(C)C (stereo partly drawn) [AG_015],> 100 nM,> 10 nM,7.00 to 8.00,10.00 to 12.00,,,
COC(=O)N[C@H](C(=O)N1CCCC1c1ccc(-c2ccc(-c3ccc(-c4cnc([C@@H]5CCCN5C(=O)[C@@H](NC(=O)OC)C(C)C)[nH]4)cc3)cc2)[nH]1)C(C)C (stereo partly drawn) [AG_001],> 10 nM,> 1 nM,8.00 to 9.00,10.00 to 12.00,,,
COC(=O)NC(C(=O)N1CCC[C@H]1c1ncc(-c2ccc(-c3ccc(-c4[nH]c(C5CCCN5C(=O)[C@@H](NC(=O)OC)C(C)C)c5c4CCC5)cc3)cc2)[nH]1)C1CCOC1 (stereo partly drawn) [AG_049],> 100 nM,> 100 nM,7.00 to 8.00,10.00 to 12.00,,,
COC(=O)NC(C(=O)N1CCCC1c1[nH]c(-c2ccc(-c3ccc(-c4cnc([C@@H]5CCCN5C(=O)C(NC(=O)OC)C5CCOCC5)[nH]4)cc3)cc2)c2c1CCC2)C1CCOCC1 (stereo partly drawn) [AG_042],> 100 nM,> 100 nM,8.00 to 9.00,9.00 to 10.00,,,
COC(=O)NC(C(=O)N1CCC[C@H]1c1ncc(-c2ccc(-c3ccc(-c4[nH]c(C5CCCN5C(=O)[C@@H](NC(=O)OC)C(C)C)c5c4CCCC5)cc3)cc2)[nH]1)C1CCOC(C)C1 (stereo partly drawn) [AG_047],> 100 nM,> 100 nM,7.00 to 8.00,9.00 to 10.00,,,

# Source: patent publication US10160771B2, “Hepatitis C virus inhibitors and uses thereof in preparation of drugs” (priority 2014, dated 2018)
